Biological target: recombinant human CCR5 receptor (Homo sapiens, UniProt P51681)
Assay: in vitro radioligand binding assay: inhibition of the binding of iodinated MIP-1α
Conditions: membranes from Chinese hamster ovary cells expressing CCR5; 0.1 nM iodinated MIP-1α; average if tested more than once

recombinant human CCR5 receptor, sequence (P51681 whole entry): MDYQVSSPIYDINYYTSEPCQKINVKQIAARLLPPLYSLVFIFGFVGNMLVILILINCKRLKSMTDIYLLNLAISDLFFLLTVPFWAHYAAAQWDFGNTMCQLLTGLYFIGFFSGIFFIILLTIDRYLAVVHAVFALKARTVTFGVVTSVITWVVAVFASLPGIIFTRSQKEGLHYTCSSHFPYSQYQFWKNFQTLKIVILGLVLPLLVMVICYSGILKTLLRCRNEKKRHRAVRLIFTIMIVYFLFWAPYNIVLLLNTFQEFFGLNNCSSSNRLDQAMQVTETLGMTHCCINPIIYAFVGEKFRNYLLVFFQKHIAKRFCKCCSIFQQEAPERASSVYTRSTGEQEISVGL

IC50 [nM] | SMILES
5.62 | CCN(C(=O)Cc1ccc(S(C)(=O)=O)cc1)C1CCN(CCC(c2ccccc2)N2CCN(S(=O)(=O)CC(F)(F)F)CC2)CC1 (centres unmarked) [15 of Table II]
363 | CCN(C(=O)Cc1ccc(S(C)(=O)=O)cc1)C1CCN(CCC(c2ccccc2)N2CCN(C)CC2)CC1 (centres unmarked) [6 of Table I]

— US7192973B2, “Piperidine derivatives and their use as modulators of chemokine receptor activity (especially CCR5)” (AstraZeneca AB, priority 2001, dated 2007)
